Laboratory results: ChEMBL document CHEMBL1201862, “PubChem BioAssay data set” (2004)
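These data come from cells grown in 96-well plates and exposed to compound for 48 hours at five concentrations. Here, GI50 denotes the concentration required for 50% inhibition of growth.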 Calls of active or inactive are those of the source. No stated cut-off is given here; in the data, active = GI50 up to about 1.1 µM and inactive = higher.

Tests used:
Assay in all cases: NCI-60 cell line screen, 48 h
[1] = system: MDA-MB-435
[2] = system: SK-MEL-28
[3] = system: SR
[4] = system: SK-MEL-2
[5] = system: PC-3
[6] = system: A549
[7] = system: SF-268
[8] = system: Hs-578T
[9] = system: NCI-H226
[10] = system: OVCAR-5
[11] = system: HCT-116
[12] = system: SK-MEL-5
[13] = system: MDA-N
[14] = system: T47D
[15] = system: HL-60
[16] = system: BT-549

Measured: GI50

CC(=O)O[C@H]1C(=O)N(c2cc3c4ccccc4ccc3c3ccccc23)[C@@H]1c1ccccc1
inactive: [1] 1.61 µM | [2] 10.4 µM | [3] 1.6 µM | [4] 2.65 µM | [5] 7.82 µM | [6] 4.56 µM | [7] 7.24 µM | [8] 5.16 µM | [9] 3.33 µM | [10] 15.7 µM | [11] 3.21 µM | [12] 3.24 µM | [13] 3.86 µM | [14] 6.01 µM

CC1(C)C(=O)N(O)C(C)(C)N1N=O
inactive: [1] > 10 µM | [3] > 10 µM | [4] > 10 µM | [5] > 10 µM | [6] > 10 µM | [15] > 10 µM | [7] > 10 µM | [16] > 10 µM | [9] > 10 µM | [10] > 10 µM | [11] > 10 µM | [14] > 10 µM

Cc1cccc(Nc2cnc(N)nc2N)c1
inactive: [1] > 100 µM | [2] > 100 µM | [4] > 100 µM | [5] > 100 µM | [6] > 100 µM | [15] > 100 µM | [9] > 100 µM | [11] > 100 µM | [12] > 100 µM | [13] > 100 µM | [14] > 100 µM

O=C(CC(C(=O)c1ccoc1)c1ccco1)c1ccco1 (stereo unspecified)
inactive: [1] 30 µM | [2] 37.9 µM | [3] 85.7 µM | [6] 79.6 µM | [15] > 100 µM | [7] > 100 µM | [8] > 100 µM | [9] > 100 µM | [10] > 100 µM | [11] > 100 µM | [12] > 100 µM | [13] 29.4 µM | [14] > 100 µM

Cc1ccc(C(C2C(=O)N(C)C(=O)N(C)C2=O)C(F)(F)C(=O)N(C)C)cc1 (stereo unspecified)
inactive: [1] > 100 µM | [2] > 100 µM | [4] > 100 µM | [5] > 100 µM | [6] > 100 µM | [7] > 100 µM | [16] > 100 µM | [9] > 100 µM | [10] > 100 µM | [11] > 100 µM | [12] > 100 µM | [14] > 100 µM

CSCCC(NCc1c(O)ccc2ccc(=O)oc12)C(=O)O (stereo unspecified)
inactive: [1] 70.8 µM | [2] > 100 µM | [3] > 100 µM | [4] > 100 µM | [5] > 100 µM | [6] > 100 µM | [15] > 100 µM | [7] > 100 µM | [8] 4.78 µM | [9] > 100 µM | [10] > 100 µM | [11] > 100 µM | [12] 61.5 µM | [13] > 100 µM | [14] > 100 µM

CC1(C)NC(C(=O)c2ccccc2)=[N+]([O-])C1(O)c1ccccc1 (stereo unspecified)
inactive: [1] > 100 µM | [2] > 100 µM | [3] > 100 µM | [4] > 100 µM | [5] > 100 µM | [6] > 100 µM | [15] > 100 µM | [7] > 100 µM | [8] > 100 µM | [9] > 100 µM | [10] > 100 µM | [11] 74.5 µM | [12] 93.3 µM | [13] > 100 µM | [14] > 100 µM

O=C1c2ccccc2C(=O)c2sc(Nc3ccccc3C(F)(F)F)nc21
inactive: [1] 4.82 µM | [2] 16.2 µM | [3] 4.16 µM | [4] 11.6 µM | [5] 12.2 µM | [6] 21.2 µM | [15] 3.74 µM | [7] 11 µM | [8] 11.9 µM | [10] 22.4 µM | [11] 28.6 µM | [12] 8.05 µM | [13] 12.5 µM | [14] 12 µM
